In patent publication US9850527B2, “Modified stem-loop oligonucleotide mediated reverse transcription and base-spacing constrained quantitative PCR” (National University of Singapore, priority 2010, dated 2017):

What was measured:
[1] = target: Taq polymerase (Thermus aquaticus, UniProt P19821); conditions: cited from earlier work
[2] = tested on: miRNA expression in U251 cells; experiment: GDNF-regulated miRNA expression in U251 cells quantified by hemi-nested real-time RT-PCR; format: cell-based, human
Description: Human glioblastoma cell lines A172 and U251 were cultured in DMEM supplemented with 10% fetal bovine serum (FBS, Sigma) and antibiotics (100 U/ml penicillin and 100 μg/ml streptomycin) in a 5% CO2 humidified incubator at 37° C. U251 cells were seeded at 200,000 cells per well in E-well plate for 24 h and incubated with FBS-free DMEM medium for 12-16 h. The cells were then stimulated with 100 ng/ml of GDNF for defined periods of time in DMEM. For MEK inhibitor studies, the cells were pre-incubated with 5 μM U0126 (Promega, Madison, Wis., USA) for 45 min in DMEM prior to GDNF stimulations. Total RNA from untreated or GDNF treated glioblastoma cells was isolated using TRIzol reagent (Invitrogen) in the presence of 20 μg/ml linear acrylamide (Ambion) according to the manufacturer's instructions. The extracted RNA samples were then quantified using spectrophotometry and the integrity examined by denaturing RNA gel electrophoresis. […]
Real-time PCR was performed on the CFX96 system (Bio-Rad, Hercules, Calif., USA) using SYBR GREEN™ I. Real-time PCR for precursor miRNA and U6 snRNA was performed according to previous reports (Schmittgen et al., 2004; Jiang et al., 2005). […] The threshold cycles (Ct) were calculated automatically using the CFX manager software (Bio-Rad). […]

[3] = tested on: ERK1/2 MAPK; experiment: GDNF-induced ERK1/2 MAPK signaling activation in U251 cells (Western blot, phospho ERK1/2); format: cell-based, human; conditions: GDNF 100 ng/ml
Description: FIG. 18. GDNF-induced signaling activation in U251 human glioblastoma cells. Control and GDNF stimulated U251 cells were lysed with 2% SDS. Total protein lysates were quantified using microBCA protein assay (Pierce, Rockford, Ill., USA). Total protein (10 μg) were separated by SDS-PAGE and probed with antibodies against phospho ERK1/2 (Cell […] Technologies, Danvers, Mass., USA). The blots were striped in Western Blot Stripping Buffer (Pierce) and re-probed with total ERK1/2 (Cell Signaling Technologies) to verify equal loading. Chemiluminescence was imaged and analyzed by ChemiDoc system (Bio-Rad). A) Time-course of ERK1/2 MAPK activation by GDNF (100 ng/ml) in U251 cells. B) GDNF-induced ERK1/2 MAPK activation was inhibited by pre-treatment of MEK inhibitor U0126 (5 μM).
Human glioblastoma cell lines A172 and U251 were cultured in DMEM supplemented with 10% fetal bovine serum (FBS, Sigma) and antibiotics (100 U/ml penicillin and 100 μg/ml streptomycin) in a 5% CO2 humidified incubator at 37° C. U251 cells were seeded at 200,000 cells per well in E-well plate for 24 h and incubated with FBS-free DMEM medium for 12-16 h. The cells were then stimulated with 100 ng/ml of GDNF for defined periods of time in DMEM. […] The extracted RNA samples were then quantified using spectrophotometry and the integrity examined by denaturing RNA gel electrophoresis.

Taq polymerase, sequence (P19821 whole entry): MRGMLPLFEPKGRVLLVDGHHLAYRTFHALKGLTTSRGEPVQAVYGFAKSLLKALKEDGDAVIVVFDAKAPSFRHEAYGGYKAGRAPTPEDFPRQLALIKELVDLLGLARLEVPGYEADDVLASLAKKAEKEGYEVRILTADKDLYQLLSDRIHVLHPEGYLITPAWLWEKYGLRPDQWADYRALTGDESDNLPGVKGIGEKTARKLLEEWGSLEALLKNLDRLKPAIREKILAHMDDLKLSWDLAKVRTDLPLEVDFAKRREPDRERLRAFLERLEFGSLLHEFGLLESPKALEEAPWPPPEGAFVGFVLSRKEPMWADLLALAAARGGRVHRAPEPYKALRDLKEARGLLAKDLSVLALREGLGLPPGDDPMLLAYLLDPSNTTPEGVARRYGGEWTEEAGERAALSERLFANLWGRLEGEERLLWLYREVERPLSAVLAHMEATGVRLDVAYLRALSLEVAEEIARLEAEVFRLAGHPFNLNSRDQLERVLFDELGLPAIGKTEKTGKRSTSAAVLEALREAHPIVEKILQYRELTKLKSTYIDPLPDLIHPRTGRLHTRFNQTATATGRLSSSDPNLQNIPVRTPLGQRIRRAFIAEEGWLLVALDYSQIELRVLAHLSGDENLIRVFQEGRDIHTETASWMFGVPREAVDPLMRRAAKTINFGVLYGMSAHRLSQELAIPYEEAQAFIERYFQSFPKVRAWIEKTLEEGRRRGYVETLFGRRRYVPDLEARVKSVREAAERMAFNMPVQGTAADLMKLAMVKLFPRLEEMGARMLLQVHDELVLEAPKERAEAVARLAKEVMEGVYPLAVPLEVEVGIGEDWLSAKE

Molecule: Cc1cc([C@H]2C[C@H](O)[C@@H](COP(=O)(O)OP(=O)(O)OP(=O)(O)O)O2)c[nH]c1=O [d*TTP, 5-(2′-deoxy-b-D-ribofuranosyl)-3-methyl-2-pyridone-5′-triphosphate]
- inhibition in PCR catalysed by Taq polymerase [1]: strong inhibition

Molecule: N#CC(=C(/N)Sc1ccccc1N)/C(C#N)=C(\N)Sc1ccccc1N [U0126]
- inhibition of GDNF-induced up-regulation of the 6 miRNAs ([2]; pretreatment with U0126, 24-plex assay): effectively inhibited
- inhibition of GDNF-induced ERK1/2 MAPK activation ([3]; U251 cells, pre-treatment with U0126 5 μM): inhibited

Molecule: Nc1ccc([C@H]2C[C@H](O)[C@@H](COP(=O)(O)OP(=O)(O)OP(=O)(O)O)O2)cn1 [d*CTP, 2-amino-5-(2′-deoxy-b-D-ribofuranosyl)pyridine-5′-triphosphate]
- inhibition in PCR catalysed by Taq polymerase [1]: strong inhibition

B1: GDNF: GDNF used to stimulate U251 glioblastoma cells at 100 ng/ml (protein, UniProt P39905 78-211, looked up)
Glial cell line-derived …: SPDKQMAVLPRRERNRQAAAANPENSRGKGRRGQRGKNRGCVLTAIHLNVTDLGLGYETKEELIFRYCSGSCDAAETTYDKILKNLSRNRRLVSDKVGQACCRPIAFDDDLSFLDDNLVYHILRKHSAKRCGCI
- regulation of miRNA expression (miR-7, -21, -218, let-7f, -7g, -7i), fold change to non-stimulated control ([2]; GDNF 100 ng/ml, temporal regulation): timedependent up-regulation
- activation of ERK1/2 MAPK ([3]; U251 human glioblastoma cells, time-course): induced time-dependent activation of ERK1/2 MAPK
